# Reference: patent US6214805A, “RNase L activators and antisense oligonucleotides effective to treat RSV infections” (priority 1997, dated 2001)
# Tests used:
# RSV M2 RNA = test: RT-PCR of M2 RNA from RSV-infected 9HTE cells; type: cell-based, Respiratory syncytial virus; details: RNA at 8 h post-infection, M.O.I.=10
# Method: To determine if RSV RNA levels correlated with antiviral activity, RT-PCR analysis was performed on RNA isolated from RSV-infected and uninfected 9HTE cells with and without treatment with spA4 -antiRSV3'3'T/(8281-8299) or spA4 -antiRSV3'3'A/(8530-8547). An M2 RNA sequence in RSV (from nucleotides 7879 to 8465) was converted to cDNA and amplified by PCR. M2 RNA from the RSV-infected cells produced an RT-PCR DNA product that was clearly visible. […] Levels of GAPDH transcripts were similar in all of these RNA preparations.
# RNA was collected from 2×10^5 9HTE cells at 8 h post-infection (M.O.I.=10) by RNAzol treatment as described by the manufacturer (Tel-Test, Inc, Freindswood, Tex.). RNA was isolated after 8 h to limit RSV replication to a single cycle. Isolated RNA (≈1 μg) was incubated with 100 pmoles of the appropriate downstream (-) primer listed below or 100 pmoles of random hexamer (used for glyceraldehyde-3-phosphatedehydrogenase, GAPDH, mRNA only). RNA and primers were heated to 70° C. for 10 min then cooled rapidly on ice for 5 min. […]
# 25 μl Hot-Start upper buffer contained 5 U Taq DNA polymerase (GibcoBRL) and 1/10th of the cDNA from the RT reaction. […] Aliquots of the RT/PCR mixtures were analyzed on 1% agarose/TBE gels.
# RSV strain A2 [1] = test: Antiviral activity in MA-104 cells, visual CPE; type: cell-based, Respiratory syncytial virus; details: visual CPE, MOI = 0.005, added twice daily for 4 d, read on d 5
# Description: (§1) A comparison of the efficacies of spA4 -antiRSV3'3'T/(8281-8299) treatment and conventional ribarvirin treatment can be obtained by determining the RSV-inhibitory concentration and the cytotoxic concentration of each compound. Cultures of the human laryngeal carcinoma cell line HEp-2 and the […] renal cell line MA-104 were established and infected with an MOI=0.005. Cultures were fed twice daily. Treatment with either ribavirin or spA4 -antiRSV3'3'T/(8281-8299) was begun simultaneously with infection and continued for four days. Treatment was then withdrawn and the test read on day 5. The effects of treatment on RSV infection were reported as 1) an EC50, the concentration at which there was a 50% reduction in the observable cytopathic effects of infection and 2) an EC90, the concentration at which there was a 90% reduction in viral production. […] Therapeutic efficacy is estimated by the Selectivity Index, which is the ratio of IC50 /EC50.
# (§2) as determined with RSV strain A2, MOI = 0.005
# (§3) Fresh medium and oligo or ribavirin added twice daily for 4 d and test read
# (§4) EC50 effective concentration to reduce RSV-induced CPE by 50%.
# Hep-2 Cells = test: Cytotoxicity to Hep-2 cells (visual and dye uptake, rapidly dividing cells); type: cell-based, human
# Description: as §1
# (§5) IC50 50% inhibitory concentration for cytotoxicity to cells (visual
# RSV strain A2 [2] = test: Virus yield reduction in MA-104 cells; type: cell-based, Respiratory syncytial virus; details: RSV yield reduced by 90%, MOI = 0.005, added twice daily for 4 d
# Description: as §1, §2, §3
# EC90 effective concentration to reduce RSV yield by 90%.
# MA-104 Cells = test: Cytotoxicity to MA-104 cells (visual and dye uptake, rapidly dividing cells); type: cell-based, murine
# Description: as §1, §5
# RSV strain A2 [3] = test: Inhibition of RSV replication in RSV-infected 9HTE cells, virus plaque assay on CV-1 cells at 36 h post-infection; type: cell-based, Respiratory syncytial virus; details: for % Inhibition of RSV replication: 9HTE cells, M.O.I. 2.0, 36 hrs post-infection
# Description: To develop 2-5A antisense chimeras with the potential to block RSV replication, an oligonucleotide binding site in the viral RNA polymerase (RSV L) mRNA, which encodes a low abundance message that is absolutely required for RSV replication was selected. The first chimera synthesized and evaluated was pA4 -antiRSV/(8490-8509). The binding sites for the chimeric oligonucleotide's antisense domain are to the transcripts of nucleotides 8490-8509 in the RSV genome, which spans the translation start codon for the L protein, and to nucleotides 8490-8509 of the antigenomic strand (the template for reproduction of the genome). Since to function as an effective treatment, a candidate agent must be able to inhibit viral replication subsequent to diagnosis, the anti-RSV effect of the 2-5A antisense chimera was determined on human tracheal epithelial cells, 9HTE, with treatments beginning either 4 h before RSV infection (pre-/post-infection treatments) or 2 h following infection (post-infection treatments). In the post-infection treatments, pA4 -antiRSV/([…]), was added at t+2, t+14 and t+26, (numbers represent time in h relative to time of infection, 0) For pre-infection treatment, pA4 -antiRSV/(8490-8509) (10 μM final concentration), was added at t-4, and t0 in addition to […]; t+14 and t+26. Virus harvested from control and oligonucleotide-treated 9HTE cells was measured by infecting CV-1 cells and subsequently counting viral plaques. […] On the basis of these experiments, all subsequent experiments were performed with post-infectiontreatments only. Additionally, these experiments indicate the potential use of these compounds as a treatment for active infection as compared to a prophylactic measure.
# The human tracheal epithelial cell line, 9HTE, (Gruenert et al., 1988) and CV-1 cells, (American Type Culture Collection, Rockville, Md., CCI#70) a green monkey kidney cell line which is highly permissive to RSV infection, were cultured in minimal essential medium (MEM) supplemented with 10% (v/v) fetal bovine serum (FBS), 2 mM L-glutamine, 1× MEM amino acids solution, 1× MEM non-essential amino acids solution, 100 U/ml penicillin, 100 μg/ml streptomycin and 0.25 μg/ml amphotericin B ("culture medium") (all reagents from Gibco BRL, Bethesda, Md.). RSV strain A2 (ATCC No. VR1302) was propagated in CV-1 cells. CV-1 monolayers were infected at a multiplicity of infection (M.O.I.) of 0.2 and cultured 46 h in MEM, 2% FBS, 1× Penicillin/Streptomycin (PS) in 5% CO2, 95% O2 at 37° C. Cells were then washed 2 times in MEM and subsequently covered in MEM, 2% FBS, 1× PS, 50 mM HEPES (pH7.5), 100 mM Mg(SO4). After 2 h at 37° C., cells were scraped and sonicated as previously described (Panuska et al., 1995). Aliquots (1 ml each) of cell sonicates were flash frozen in ethanol/dry ice within 20 min of scraping. Several aliquots were then thawed and titered by a plaque assay on CV-1 cells as previously described (Cirino et al., 1993). The range of virus yield from this procedure was 2 to 7×10^6 plaque forming units (pfu) per ml.
# Infection of 9HTE cells was performed as previously described (Merolla et al., 1994). Briefly, confluent monolayers were exposed to RSV diluted in MEM, 2% FBS, for 2 h at 37° C. in 5% CO2, 95% O2. After exposure, cells were washed two times with serum-free MEM media and then fresh culture media (with 10% FBS) was added. Oligonucleotides were either added 4 h prior to infection (t-4) or immediately after infection (t+2) and also at t+14 and t+26. Cells were harvested for plaque assays at 36 h post-infection to determine viral titers as previously described (Cirino et al., 1993). Cells were washed twice to remove any residual antisense and were then scraped in MEM containing 2% FBS, 1× PS. 9HTE cells were sonicated for 20 sec on ice then the extracts were serially diluted and transferred to a confluent monolayer of CV-1 for quantitation of infectious viral particles. […]
# RSV strain A2 [4] = test: Antiviral activity in Hep-2 cells, neutral red (reduction of RSV-induced CPE); type: cell-based, Respiratory syncytial virus; details: neutral red, MOI = 0.005, added twice daily for 4 d, read on d 5
# Description: as §1
# determined with RSV strain A2, MOI = 0.005
# as §3, §4
substance,measurement,setting,value
spA2'p(A2'p)3 -[(Bu)p]2 -(5'atg gtt att tgg gtt gtt3'-3't5') [spA4-antiRSV3'-3'T/(8281-8299)],M2 RNA RT-PCR product,RSV M2 RNA,no M2 RNA detected
same,EC50,RSV strain A2 [1],20 nM
same,IC50,Hep-2 Cells,> 10000 nM
same,EC90,RSV strain A2 [2],20 nM
same,IC50,MA-104 Cells,> 10000 nM
same,% Inhibition of RSV replication,"RSV strain A2 [3]; 3.3 μM oligonucleotide/treatment at t+2, t+14, t+26 h",91.3%
same,% Inhibition of RSV replication,"RSV strain A2 [3]; 6.6 μM oligonucleotide/treatment at t+2, t+14, t+26 h",97%
same,% Inhibition of RSV replication,"RSV strain A2 [3]; 9.9 μM oligonucleotide/treatment at t+2, t+14, t+26 h",99.6%
same,comparison of anti-RSV activities (FIG. 3),RSV strain A2 [3]; spA4-linked versus spA2-linked oligonucleotide,greater potency
same,EC50,RSV strain A2 [4],300 nM
